One may read the IC50 as the midpoint of a concentration-inhibition curve.

The subject of data set [1] is H460 (human lung cancer cell line). The experiment in a line: MTS cytotoxicity assay, H460. Format: cell-based. The following applies: 72 h, mean ± SD. The procedure: (§1) The cisplatin stock solution was prepared in PBS.
(In general: Tetrazolium dyes change colour on reduction, which living cells bring about.)

For data set [2], the system named is DU145 (human prostate cancer cell line). The experiment in a line: MTS cytotoxicity assay, DU145. Format: cell-based. The following applies: 72 h, mean ± SD. The protocol: as §1
Data set [3] relates to A549 (human lung carcinoma). The experiment in a line: MTS cytotoxicity assay, A549. Format: cell-based. The following applies: for IC50: MTS assay, 72 h, mean ± SD. The procedure: as §1
Data set [4] relates to SKOV3 (human ovarian cancer cell line). The experiment in a line: MTS cytotoxicity assay, SKOV3. Format: cell-based. The following applies: for IC50: MTS assay, 72 h, mean ± SD. The procedure: as §1
For data set [5], the system named is MCF7 (human breast cancer cell line). The experiment in a line: MTS cytotoxicity assay, MCF7. Format: cell-based. The following applies: 72 h, mean ± SD. The protocol: as §1
Data set [6] concerns HT29, empty vector transfected and shGLUT1-transfected cells. The experiment in a line: Cellular platinum accumulation (ICP-MS). Format: cell-based, human. The following applies: 200 μM, 2 h, DNA isolated. The procedure:
The uptake values are depicted in Figure 5H.
HT29 cells were seeded in 10 cm dishes at densities of 6 × 10^6 cells/dish and kept at 37°C in a humidified 5% CO2 incubator. […] The cell suspensions were centrifuged at 2500 rpm for 10 min and remove the PBS. Vortex vigorously to resuspend cells. Nuclei lysis solution was added to lyse the cells. DNA was extracted with TIANamp Genomic DNA kit (TIANGEN). The extracted DNA was dissolved in concentrated nitric acid (0.05 mL) and diluted with 4.95 mL of deionized water (final concentration 1% v/v) for determining the platinum content. The platinum content taken up by the cells was determined by Agilent 7700X ICP-MS (Agilent Technologies, Tokyo, Japan). Calibrations were done using standard solutions containing 6.25, 12.5, 25, 50 and 100 ppb platinum.

Data set [7] relates to 5′-Guanosine Monophosphate (5′-GMP). The experiment in a line: Reaction kinetics with 5′-GMP by 1H NMR. The settings on record: 5 mM complex, 10 mM 5′-GMP, 5 mM NaCl, pH 7.2-7.4, 37°C. The procedure:
A 5 mM solution of the sodium chloride was added to the mixture to simulate the intracellular environment.
Kinetic study of the substitution reactions between sugar conjugated platinum complexes with 5′-Guanosine Monophosphate was performed on Bruker Avance 400 MHz spectrometer by ^1H NMR analysis. Platinum complex (5 mM) and 5′-GMP (10 mM) were freshly prepared in deuterium oxide (D2O) at 37°C. A 5 mM solution of the NaCl in D2O was added to the mixture just before running the spectra. All samples were incubated at 37°C in a water bath to simulate physiological conditions and 1H NMR spectra were recorded at 295 K over a period of several days.

Data set [8] deals with HT29 tumor xenograft BALB/c nude mice model. The procedure:
Female BALB/c nude mice were inoculated by subcutaneous injection of HT29 human colon cancer cells (5 × 10^6). For the treatment groups, drug dosage was adjusted for average body weight for each group. Injection volume was 10 mL/kg. Each treatment group contains eight mice and control animals used ten mice and received injections of sterile saline. Treatments were initiated when the tumor reached a volume of 100-300 mm^3 in all mice. Animals received multiple treatments intravenously on days 0, 7, 14 and 21. […] Saline (5% v/v) was administered to the vehicle control group. Tumor volume was assessed regularly by measuring length (l) and width (w) with caliper and calculated using the formula V = lw^2/2. Body weight was recorded and used as a parameter of systemic toxicity. All mice were sacrificed on the 46th day of the experiment, and the tumor weight was measured.

The test system of data set [9] is HT29 (human colon cancer cell line). The settings on record: read-out: IC50 (μM) HT29; MTS assay, 72 h, mean ± SD.
Protocol: The human colon cancer (HT29), breast cancer (MCF7), prostate cancer (DU145) and ovarian cancer (SK-OV-3) cell lines, were obtained from Central Institute of Pharmaceutical Research, CSPC Pharmaceutical Group, China. The human lung cancer cell lines H460 and A549 were purchased from the American Type Culture Collection (ATCC). […] MCF7 and SK-OV-3 were cultured in advanced Dulbecco's modified Eagle medium (DMEM), and other cell lines were cultured as adherent monolayer in RPMI-1640 supplemented with 1% (w/v) glutamine and 10% (v/v) fetal bovine serum (Gibco) at 37°C under a humidified atmosphere containing 5% CO2 and 95% air.
Cytotoxicity assays were carried out by the Celltiter 96 aqueous nonradioactive cell proliferation assay (Promega, Madison, WI). Cells were harvested by trypsinization and seeded in a 96-well flat-bottomed microplate in volumes of 100 μL at the following appropriate densities: 5.0 × 10^3 (A549), 8.0 × 10^3 (HT29), and 3.0 × 10^3 (H460), 5.0 × 10^3 (SKOV3), 8.0 × 10^3 (MCF7), 8.0 × 10^3 (DU145) cells per well. After being allowed to settle and resume exponential growth for 24 h, the cells were treated either with vehicle or with appropriate serial dilutions of the complexes. […] All the tested compounds were dissolved at room temperature prior to use and serially diluted in medium. Cells were incubated in a humidified atmosphere of 5% CO2 at 37°C for 72h. After incubation, 20 μL of MTS/PMS solution were added to each well and the mixtures were allowed to equilibrate for 2 h. The absorbance of MTS products was measured spectrophotometrically at 490 nm with microplate reader (VERSAmax, USA). The IC50 values of each test sample were calculated from nonlinear curve fits using dose-response equation in GraphPad Prism (La Jolla, CA). Experimental conditions were performed in five replicates and the calculated IC50 values are averages of three individual experiments.
Data set [10] concerns DBA/2 mice. The settings on record: both mouse models (DBA/2 and BALB/c).
Protocol: The maximum tolerated dose is defined as the highest tolerated dose (mean weight loss < 15%) without causing major (life-threatening) toxicity (< 15% toxic deaths) in the study.
Three weeks-old male DBA/2 mice purchased from Beijing Vital River Laboratory Animal Technology Co. Ltd. were used for MTD study. Determination of MTD was performed as previously described [22]. […] Physiological observations (body weight and food consumption) were recorded. The maximum tolerated dose is defined as the highest tolerated dose (mean weight loss < 15%) and not cause major (life-threatening) toxicity (< 15% toxic deaths) during the study.
The test system of data set [11] is L1210 leukemia bearing DBA/2 mice. The following applies: 5a 11 mg/kg (18% MTD) vs oxaliplatin 7 mg/kg (70% MTD), i.p., days 1, 5, 9.
Protocol: The same male DBA/2 mice were used for in vivo efficacy study. Mice were kept in a pathogen-free environment under a condition of constant photoperiod. […] Six mice for treatment groups and ten mice for control group were used for this in vivo study. L1210 murine leukemia cells (1 × 10^6) were injected intraperitoneally into DBA/2 mice on day 0. […] Control group of ten mice each received injections of sterile saline. Animals were observed daily for clinical signs of toxicity and body weight was measured throughout the study.
For data set [12], the system named is DBA/2 mice. The following applies: previous study; cited from earlier work.
Another data set has as its system BALB/c nude mice. The settings on record: previous study; cited from earlier work.
In data set [13] the test system is cisplatin resistant HT29cisR human colon carcinoma cell line. The experiment in a line: Cytotoxicity in cisplatin resistant cells. Format: cell-based. The settings on record: read-out: IC50 against HT29cisR. The protocol:
as §1

For a further data set, the system named is pUC18 plasmid DNA. The experiment in a line: Plasmid unwinding assay (gel electrophoresis). The settings on record: 12.5 to 100 μM, 37°C.
Data set [14] deals with HT29 human colon cancer cell line. The experiment in a line: GLUT1 inhibitor (quercetin) dependent cytotoxicity assay. Format: cell-based. The following applies: 48 h. The protocol:
(E) RT-PCR analysis of GLUT1 mRNA expression in empty vector transfected and shGLUT1-transfected cells. NT: HT29 cells; mock: HT29 cells transfected by empty vector pLKO.1; shRNA1: HT29 cells transfected by shGLUT1-1 and selected by 1 μg/mL of puromycin; shRNA2: HT29 cells transfected by shGLUT1-2 and selected by 1 μg/mL of puromycin. […] HT29 exposed with PBS or quercetin alone were served as negative control. […] Data was calculated from three independent experiments. *P < 0.05, compared to the control group.
HT29 cells were grown in monolayer and were treated with and without quercetin, followed by exposure to 100 μM of platinum(II) complexes for 48 h. MTS assay was used to analyze the cell viability and the effects of GLUT1 inhibitor quercetin on cytotoxicity.

Protocol for pUC18 plasmid DNA: To assess if the in vitro anti-proliferative activity of the sugar conjugates may be at the DNA adduct level, a plasmid unwinding assay was performed. The local untwisting of closed-circular supercoiled DNA induced by different types of platinum−DNA adducts can be determined by this assay [36]. […] On agarose gels, supercoiled plasmid DNA (form I) migrates faster in an electrical field than the nicked circle (form II).
After the incubation period, drug-DNA mixtures were loaded onto 0.8% agarose gel and electrophoresis was performed in Tris-acetate/EDTA buffer (TAE) for 1.5 h at 80 V. The gel was stained with GelRed^TM nucleic acid dye, visualized and photographed on the Bio-Rad Trans illuminator IEC 1010 (Bio-Rad, Hercules, CA).

As to `O=C1[O][Pt]2([NH][C@@H]3CCCC[C@H]3[NH]2)[O]C(=O)C1(F)CCO[C@H]1O[C@H](CO)[C@@H](O)[C@H](O)[C@H]1O` (stereo partly drawn) [5a, (trans-R,R-cyclohexane-1,2-diamine)-2-fluoromalonatoplatinum(II)-α-D-glucose conjugate], the IC50 was 11.05 ± 0.11 µM in data set [1]; 5.98 ± 0.16 µM in [2]; 0.35 ± 0.17 µM in data set [3]; 16.7 ± 0.32 µM in data set [4]; 0.61 ± 0.13 µM in data set [5]; 0.53 ± 0.16 µM in data set [9]. In addition, in data set [3] (versus oxaliplatin), the “activity higher than oxaliplatin in A549” value was determined as 2 fold. In addition, the “platinum uptake (intracellular platinum accumulation)” value in data set [6] was “greater than that in HT29-shRNA1 and HT29-shRNA2 cells”. The “reaction with 5′-GMP compared to oxaliplatin” value in data set [7] was “faster reactions”. Further, the tumor volume entry in data set [8] (25 mg/kg i.v., days 0, 7, 14, 21) is given as “statistically significant tumor shrinkage”. Also, the “MTD higher than oxaliplatin” value in the data set on DBA/2 mice [10] is given as around 5 fold. In addition, the “lifespan and survival rate” value in [11] was “overwhelming superiority in lifespan and survival rate”. In addition, the results for the MTD in the data set on DBA/2 mice [12] and with BALB/c nude mice were 60 mpk and 36 mpk, respectively.
`O=C1[O][Pt]2([NH][C@@H]3CCCC[C@H]3[NH]2)[O]C(=O)C1(F)CCO[C@H]1O[C@H](CO)[C@@H](O)[C@H](O)[C@@H]1O` (stereo partly drawn) [5b, (trans-R,R-cyclohexane-1,2-diamine)-2-fluoromalonatoplatinum(II)-α-D-mannose conjugate]: the IC50 was 10.2 ± 0.15 µM in [1]; 2.6 ± 0.18 µM in data set [2]; 0.65 ± 0.1 µM in [3]; 2.22 ± 0.19 µM in data set [4]; 0.41 ± 0.09 µM in [5]; 2.16 ± 0.18 µM in data set [9]. In data set [4] (versus oxaliplatin), the “lower IC50 values than oxaliplatin in SK-OV-3” value was “up to 70%”. The “reaction with 5′-GMP compared to oxaliplatin” value in data set [7] is given as “faster reactions”.
`O=C1[O][Pt]2([NH][C@@H]3CCCC[C@H]3[NH]2)[O]C(=O)C1(F)CCO[C@@H]1O[C@H](CO)[C@H](O)[C@H](O)[C@H]1O` (stereo partly drawn) [5c, (trans-R,R-cyclohexane-1,2-diamine)-2-fluoromalonatoplatinum(II)-β-D-galactose conjugate]: the half-inhibitory concentration (IC50) came to 10 ± 0.15 µM in [1]; 5.11 ± 0.14 µM in data set [2]; 4.9 ± 0.16 µM in [3]; 22.05 ± 0.2 µM in data set [4]; 9.82 ± 0.12 µM in [5]; 1.07 ± 0.12 µM in [9]. Moreover, in [7], the “reaction with 5′-GMP compared to oxaliplatin” value is “faster reactions”.
Consider `N.N.[Cl][Pt][Cl]` [Cisplatin, cis-(NH3)2PtCl2], for which the IC50 in [13] was found to be 19.4 µM. Further, the “mobility of supercoiled and singly-nicked plasmid DNA bands” value in the data set on pUC18 plasmid DNA is “increased and showed concentration dependency”.
For `O=C1[O][Pt]2([NH][C@@H]3CCCC[C@H]3[NH]2)[O]C1=O` [Oxaliplatin, reference compound], the IC50 in data set [1] came to 22.11 ± 0.17 µM; in data set [2] it was 2.05 ± 0.16 µM; in data set [3] it was 0.86 ± 0.09 µM; in [4], 8.54 ± 0.18 µM; in [5], 0.79 ± 0.11 µM; in data set [9] it was 5.05 ± 0.2 µM. The “dependency of cell-killing potency on quercetin” value in data set [14] (100 μM platinum complex, with or without quercetin (20 μM)) is “did not exhibit quercetin dependent cytotoxicity”. Further, the “body weight change versus vehicle group” value in data set [8] (5a 25 mg/kg, oxaliplatin 7 mg/kg, i.v. qw x 4) is on record as “no significant difference”. The MTD is reported as 10 mpk with DBA/2 mice [12] and 7 mpk in the data set with BALB/c nude mice. The “mobility of supercoiled and singly-nicked plasmid DNA bands” value with pUC18 plasmid DNA is “increased and showed concentration dependency”.
In the case of `O=c1c(O)c(-c2ccc(O)c(O)c2)oc2cc(O)cc(O)c12` [quercetin], in data set [14] (quercetin 20 μM alone), the “cytotoxic effect of quercetin alone” value is given as “did not exert any cytotoxic effect”.

These data come from PMC5503626, “GLUT1-mediated selective tumor targeting with fluorine containing platinum(II) glycoconjugates” (Oncotarget, 2017).
